Consider eleven compounds from ChEMBL document CHEMBL3044686, “Synthesis and biological evaluation of some new quinazolin-4(3H)-ones derivatives as anticonvulsants” (Med Chem Res, 2013).

The source made the active and inactive calls. No cut-off for these calls is given here.

The species entered for series [1] is Mus musculus. Description: Anticonvulsant activity in albino CF-1 Mus musculus (mouse) assessed as minimum dose required to protect half or more animals against maximal electroshock-induced seizures measured after 0.5 hr by electroshock seizure method. Type of series: functional. The note with it: albino CF-1, 0.5 h, read-out: MED. (In general: The maximal electroshock test induces tonic seizures with an electrical stimulus.)

Series [2] concerns Mus musculus. Description: Toxicity in albino CF-1 Mus musculus (mouse) assessed as motor impairment at 300 mg/kg measured after 4 hr by rotarod test. The note with it: in vivo. Type of series: organism-based. The arrangement: dose 300 mg/kg. A general note: The rotarod test checks motor coordination on a turning rod.
Series [3] relates to Mus musculus. Kind of series: Toxicity in albino CF-1 Mus musculus (mouse) assessed as motor impairment at 300 mg/kg measured after 0.5 hr by rotarod test. The following applies: in vivo. Set-up: dose 300 mg/kg. Type of series: organism-based.
The species entered for series [4] is Mus musculus. Description: Anticonvulsant activity in albino CF-1 Mus musculus (mouse) assessed as minimum dose required to protect half or more animals against maximal electroshock-induced seizures measured after 4 hr by electroshock seizure method. Type of series: functional. The note with it: albino CF-1, 4 h, read-out: MED.
The species named for series [5] is Mus musculus. Description: Toxicity in albino CF-1 Mus musculus (mouse) assessed as minimum dose required to induce motor impairment in half or more animals measured after 4 hr by rotarod test. It counts as organism-based. The note with it: in vivo.
Series [6] has as its system Mus musculus. Kind of series: Induction of CNS depressant activity in albino CF-1 Mus musculus (mouse) assessed as increase in immobility at 100 mg/kg, ip measured after 30 min by Porsolt's force swim pool method. Type of series: organism-based, Central nervous system. The arrangement: dose 100 mg/kg, route intraperitoneal. The following applies: in vivo, 0.5 h.
The subject of series [7] is Mus musculus. Kind of series: Induction of CNS depressant activity in albino CF-1 Mus musculus (mouse) assessed as duration of immobility at 100 mg/kg, ip measured after 30 min by Porsolt's force swim pool method (reference value: 52.7 +/-0.70 secs). Type of series: organism-based, Central nervous system. The arrangement: dose 100 mg/kg, route intraperitoneal. The note with it: in vivo, 0.5 h.

Series [8] is filed under the species Mus musculus. Kind of series: Toxicity in albino CF-1 Mus musculus (mouse) assessed as minimum dose required to induce motor impairment in half or more animals measured after 0.5 hr by rotarod test. Type of series: organism-based. The note with it: in vivo.
Series [9] relates to Mus musculus. Kind of series: Anticonvulsant activity in albino CF-1 Mus musculus (mouse) assessed as protection against maximal electroshock-induced seizures at 300 mg/kg measured after 0.5 hr by electroshock seizure method. It counts as functional, organism-based. Set-up: dose 300 mg/kg.

Regarding `C=CCOc1cccc(/C=N/n2c(-c3ccccc3)nc3ccccc3c2=O)c1`, the minimal effective dose in the series listed under Mus musculus [1] and in the series filed under Mus musculus [4] was 300 mg/kg throughout. Further, the Activity entry with Mus musculus [2] and in the series on Mus musculus [3] was “Non-toxic” throughout.

As for `CC(C)Oc1cccc(/C=N/n2c(-c3ccccc3)nc3ccccc3c2=O)c1`, the minimal effective dose in the series listed under Mus musculus [1] and in the series listed under Mus musculus [4] was 300 mg/kg throughout. The Activity result in the series on Mus musculus [2] and in the series on Mus musculus [3] was “Non-toxic” in each case.

With `NC(=O)N1c2ccccc2C=Cc2ccccc21` [CARBAMAZEPINE], the minimal effective dose in the series filed under Mus musculus [1] and in the series listed under Mus musculus [4] was 30 mg/kg throughout. Further, the MED in the series listed under Mus musculus [5] was determined as 100 mg/kg; in the series filed under Mus musculus [8], 300 mg/kg. In the series on Mus musculus [6], the Activity was 56.35%. The Time in the series with Mus musculus [7] is 82.4 s.

For the compound `C=CCCOc1cccc(/C=N/n2c(-c3ccccc3)nc3ccccc3c2=O)c1`, the values for the minimal effective dose in the series listed under Mus musculus [1] and in the series listed under Mus musculus [4] were 300 mg/kg and 100 mg/kg, respectively. Also, the Activity result with Mus musculus [2] is on record as “Non-toxic”; in the series with Mus musculus [6] it was 110.81%; with Mus musculus [3], “Non-toxic”. Also, the Time with Mus musculus [7] came to 111.1 s.

Take `O=c1c2ccccc2nc(-c2ccccc2)n1/N=C/c1cccc(O)c1`: the Activity entry with Mus musculus [2] and with Mus musculus [3] was “Non-toxic” each time. For the same compound, in the series filed under Mus musculus [4], the minimal effective dose was found to be 100 mg/kg. Also, the result in the series with Mus musculus [9] was inactive.

For the compound `O=c1c2ccccc2nc(-c2ccccc2)n1/N=C/c1cccc(OCc2ccccc2)c1`, the MED in the series listed under Mus musculus [5] worked out at 300 mg/kg. Besides, the Activity entry with Mus musculus [3] is reported as “Non-toxic”. In addition, in the series listed under Mus musculus [4], the minimal effective dose turned out to be 300 mg/kg. In the series on Mus musculus [9], the outcome was inactive.

In the case of `COc1cccc(/C=N/n2c(-c3ccccc3)nc3ccccc3c2=O)c1`, the Activity entry in the series on Mus musculus [2] and with Mus musculus [3] was “Non-toxic” each time. In addition, the minimal effective dose in the series filed under Mus musculus [4] worked out at 100 mg/kg. Besides, the result in the series with Mus musculus [9] was inactive.

In the case of `CCOc1cccc(/C=N/n2c(-c3ccccc3)nc3ccccc3c2=O)c1`, the minimal effective dose in the series listed under Mus musculus [1] and in the series listed under Mus musculus [4] was 100 mg/kg each time. Further, the values for the Activity entry in the series with Mus musculus [2], in the series with Mus musculus [6] and with Mus musculus [3] were “Non-toxic”, 29.6% and “Non-toxic”, respectively. The Time in the series on Mus musculus [7] came to 68.3 s.

As for `O=C1NC(=O)C(c2ccccc2)(c2ccccc2)N1` [PHENYTOIN], the minimal effective dose in the series listed under Mus musculus [1] and in the series filed under Mus musculus [4] was 30 mg/kg in each case. In the series listed under Mus musculus [5], the MED stood at 100 mg/kg. The Activity entry in the series on Mus musculus [3] is listed as “Non-toxic”.

For `CCCOc1cccc(/C=N/n2c(-c3ccccc3)nc3ccccc3c2=O)c1`, the minimal effective dose in the series filed under Mus musculus [1] stood at 100 mg/kg; in the series filed under Mus musculus [4], 30 mg/kg. In addition, the Activity result with Mus musculus [2] was “Non-toxic”; with Mus musculus [6] it was 52.18%; with Mus musculus [3], “Non-toxic”. For the same compound, the Time in the series on Mus musculus [7] amounted to 80.2 s.

As to `CCCCOc1cccc(/C=N/n2c(-c3ccccc3)nc3ccccc3c2=O)c1`, the minimal effective dose came to 300 mg/kg in the series listed under Mus musculus [1] and 100 mg/kg in the series listed under Mus musculus [4]. Also, the Activity entry in the series with Mus musculus [2] and in the series on Mus musculus [3] was “Non-toxic” throughout.
